Test results from patent publication US20180179189A1, “ADIPATE FORMS AND COMPOSITIONS OF BIARYL INHIBITORS OF BRUTON'S TYROSINE KINASE” (BIOGEN MA INC., priority 2015, published 2018).

Assays:
[1] = pKa via potentiometric titration; type: physicochemical
Description: Where this threshold is not met, non-ionic interactions (e.g., hydrogen bonds) can still occur between neutral acid and the base compounds to form, e.g., a co-crystal.

Btk = conditions: reported in the '853 application; read-out: IC50 in a pBTK assay; cited from earlier work
[2] = DVS (dynamic vapor sorption) test; type: physicochemical
Description: DVS was measured via a SMS (Surface Measurement Systems) DVS Intrinsic. The relative humidity at 25° C. were calibrated against deliquescence point of LiCl, Mg(NO3)2 and KCl.

SMILES	pKa [1]	IC50 (Btk)	form change after the DVS test (XRPD) [2]	water uptake (DVS) ([2]; 25° C./80% RH)	hygroscopicity ([2]; from DVS, 25° C./80% RH)
Cc1cc(-c2ccnc(Nc3cnn(C)c3)n2)ccc1CNC(=O)N1CC(OC(C)C)C1 [Compound 1, 3-isopropoxy-N-(2-methyl-4-(2-((1-methyl-1H-pyrazol-4-yl)amino)pyrimidin-4-yl)benzyl)azetidine-1-carboxamide]	3.31	[…]	–	–	–
Cc1cc(-c2ccnc(Nc3cnn(C)c3)n2)ccc1CNC(=O)N1CC(OC(C)C)C1 [Compound 2 Type II]	–	–	no form change	0.3%	slightly hygroscopic
